Test results from patent US12384741B2, “Lipid nanoparticle compositions for delivering circular polynucleotides” (Orna Therapeutics, Inc., priority 2021, dated 2025).

Experiments:
[1] = tested on: splenic T cells; assay: mOX40L expression in splenic T cells; type: in vivo, C57BL/6 mice; conditions: 1 mg/kg intravenously, 24 hours; IL:P 5.7, 50:10:38.5:1.5
Experimental: The ionizable lipid: helper lipid: cholesterol: PEG-lipid molar ratio of these LNPs was 50:10:38.5:1.5. C57BL/6 female mice (6-8 weeks, n=4) were dosed at 1 mg/kg intravenously. At 24 hours, the spleen from the mice were collected for flow cytometry analysis, tested for weight loss and measured for serum alanine aminotransferase (ALT) after blood collection. mOX40L expression was measured in splenic T cells.

[2] = tested on: T cells, myeloid cells, B cells, and NK cells; assay: mOX40L expression in splenic immune cells (flow cytometry); type: in vivo, C57BL/6 mice; conditions: LNP 50:10:38.5:1.5, IL:P 5.7, 1 mg/kg intravenously, 24 hours; vs Lipid 15 of Table 10f
Experimental: The ionizable lipid: helper lipid: cholesterol: PEG-lipid molar ratio of these LNPs was 50:10:38.5:1.5. Dialysis of the LNPs were performed using PBS. C57BL/6 female mice (6-8 weeks, n=4) were dosed at either LNP comprising Lipid 1 of Table 10e or the Lipid 15 of Table 10f at 1 mg/kg intravenously. At 24 hours, the spleen from the mice were collected for flow cytometry analysis. mOX40L transfection of Lipid 1 of Table 10e and Lipid 15 of Table 10f were compared in T cells, myeloid cells, B cells, and NK cells.

SMILES: CCCCCCCCCCCCC(O)CN(CCCO)CCCCCCCC(=O)OC(CCCCCCCC)CCCCCCCC (centres unmarked) [Lipid 1 of Table 10e, heptadecan-9-yl 8-((3-hydroxypropyl)(2-hydroxytetradecyl)amino)octanoate]
- mOX40L expression in splenic T cells [1]: resulted in expression of mOX40L in splenic T cells
- mOX40L transfection in splenic immune cells [2]: comparable or higher levels of mOX40L transfection
